Experimental data as given in US20060241297A1, “Pyridinylamino-pyrimidine derivatives as protein kinase inhibitors” (Cyclacel Limited, priority 2003, published 2006).
Read-outs that look alike come from different tables or passages of the source.

Columns and labels:
CDK2/cyclin E = CDK2/cyclin E (Homo sapiens, UniProt P24941); experiment: Kinase assay, incorporation of radioactive phosphate from ATP; type: biochemical; conditions: 100 μM ATP, 30° C.; read-out: Kinase inhibition Ki CDK2/cyclin E
Protocol: (§1) The compounds from the examples above were investigated for their ability to inhibit the enzymatic activity of various protein kinases. This was achieved by measurement of incorporation of radioactive phosphate from ATP into appropriate polypeptide substrates. Recombinant protein kinases and kinase complexes were produced or obtained commercially. Assays were performed using 96-well plates and appropriate assay buffers (typically 25 mM β-glycerophosphate, 20 mM MOPS, 5 mM EGTA, 1 mM DTT, 1 mM […], pH 7.4), into which were added 2-4 μg of active enzyme with appropriate substrates. The reactions were initiated by addition of Mg/ATP mix (15 mM MgCl2+100 μM ATP with 30-50 kBq per well of [γ-^32P]-ATP) and mixtures incubated as required at 30° C. Reactions were stopped on ice, followed by filtration through p81 filterplates or GF/C filterplates (Whatman Polyfiltronics, Kent, UK). After washing 3 times with 75 mM aq orthophosphoric acid, plates were dried, scintillant added and incorporated radioactivity measured in a scintillation counter (TopCount, Packard Instruments, Pangboume, Berks, UK). Compounds for kinase assay were made up as 10 mM stocks in DMSO and diluted into 10% DMSO in assay buffer. Data was analysed using curve-fitting software (GraphPad Prism version 3.00 for Windows, GraphPad Software, San Diego Calif. USA) to determine IC50 values (concentration of test compound which inhibits kinase activity by 50%.).

CDK4/cyclin D1 = CDK4/cyclin D1 (Homo sapiens, UniProt P11802); experiment: as above; type: biochemical; conditions: 100 μM ATP, 30° C.; read-out: Kinase inhibition Ki CDK4/cyclin D1
Protocol: as §1

A549 = experiment: 72-h MTT cytotoxicity assay; type: cell-based; conditions: Homo sapiens
Protocol: (§2) The compounds from the examples above were subjected to a standard cellular proliferation assay using human tumour cell lines obtained from the ATCC (American Type Culture Collection, 10801 University Boulevard, Manessas, Va. 20110-2209, USA). Standard 72-h MTT (thiazolyl blue; 3-[4,5-dimethylthiazol-2-yl]-2,5-diphenyltetrazolium bromide) assays were performed. In short: cells were seeded into 96-well plates according to doubling time and incubated overnight at 37° C. Test compounds were made up in DMSO and a 1/3 dilution series prepared in 100 μL cell media, added to cells (in triplicates) and incubated for 72 ho at 37° C. MTT was made up as a stock of 5 mg/mL in cell media and filter-sterilised. Media was removed from cells followed by a wash with 200 μL PBS. MTT solution was then added at 20 μL per well and incubated in the dark at 37° C. for 4 h. MTT solution was removed and cells again washed with 200 μL PBS. MTT dye was solubilised with 200 μL per well of DMSO with agitation. Absorbance was read at 540 nm and data analysed using curve-fitting software (GraphPad Prism version 3.00 for Windows, GraphPad Software, San Diego Calif. USA) to determine IC50 values (concentration of test compound which inhibits cell growth by 50%). Various modifications and variations of the described aspects of the invention will be apparent to those skilled in the art without departing from the scope and spirit of the invention. Although the invention has been described in connection with specific preferred embodiments, it should be understood that the invention as claimed should not be unduly limited to such specific embodiments. Indeed, various modifications of the described modes of carrying out the invention which are obvious to those skilled in the relevant fields are intended to be within the scope of the following claims.

HT29 = experiment: 72-h MTT cytotoxicity assay; type: cell-based; conditions: Homo sapiens, HT-29
Protocol: as §2

Saos-2 = experiment: 72-h MTT cytotoxicity assay; type: cell-based; conditions: Homo sapiens
Protocol: as §2

[1] = test system: transformed human cell lines (A549, HT29, Saos-2); experiment: 72-h MTT cytotoxicity assay, average over cell lines; type: cell-based
Protocol: as §2

Aurora-A = target: T1, Aurora-A (Homo sapiens, UniProt O14965); experiment: Kinase assay, incorporation of radioactive phosphate from ATP; type: biochemical; conditions: 100 μM ATP, 30° C.; read-out: Kinase inhibition Ki Aurora-A
T1 sequence (O14965 1-403): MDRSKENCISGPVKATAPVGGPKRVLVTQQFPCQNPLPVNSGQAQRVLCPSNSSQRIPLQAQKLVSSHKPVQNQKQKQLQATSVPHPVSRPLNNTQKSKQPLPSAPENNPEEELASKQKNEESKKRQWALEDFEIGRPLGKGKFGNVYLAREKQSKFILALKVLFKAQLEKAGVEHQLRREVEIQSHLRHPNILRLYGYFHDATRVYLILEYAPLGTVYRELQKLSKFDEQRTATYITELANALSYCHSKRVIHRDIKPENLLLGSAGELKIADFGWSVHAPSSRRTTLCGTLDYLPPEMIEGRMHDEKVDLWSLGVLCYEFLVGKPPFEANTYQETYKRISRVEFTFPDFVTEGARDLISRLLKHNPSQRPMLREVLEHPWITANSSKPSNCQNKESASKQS
Protocol: as §1

CDK1/cyclin B = CDK1/cyclin B (Homo sapiens, UniProt P06493); experiment: as above; type: biochemical; conditions: 100 μM ATP, 30° C.; read-out: Kinase inhibition Ki CDK1/cyclin B
Protocol: as §1

CDK2/cyclin A = CDK2/cyclin A (Homo sapiens, UniProt P24941); experiment: as above; type: biochemical; conditions: 100 μM ATP, 30° C.; read-out: Kinase inhibition Ki CDK2/cyclin A
Protocol: as §1

CDK7/cyclin H = CDK7/cyclin H (Homo sapiens, UniProt P50613); experiment: as above; type: biochemical; conditions: 100 μM ATP, 30° C.; read-out: Kinase inhibition Ki CDK7/cyclin H
Protocol: as §1

CDK9/cyclin T1 = CDK9/cyclin T1 (Homo sapiens, UniProt P50750); experiment: as above; type: biochemical; conditions: 100 μM ATP, 30° C.; read-out: Kinase inhibition Ki CDK9/cyclin T1
Protocol: as §1

GSK3β = GSK3β (Homo sapiens, UniProt P49841); experiment: as above; type: biochemical; conditions: 100 μM ATP, 30° C.; read-out: Kinase inhibition Ki GSK3β
Protocol: as §1

[2] = average of A549, HT29, Saos-2, read-out: 72-h MTT IC50 Average
[3] = in vitro, read-out: IC50 value (average) against one or more transformed human cell lines, 72-h MTT cytotoxicity assay

Sequence of CDK4/cyclin D1 (P11802 whole entry): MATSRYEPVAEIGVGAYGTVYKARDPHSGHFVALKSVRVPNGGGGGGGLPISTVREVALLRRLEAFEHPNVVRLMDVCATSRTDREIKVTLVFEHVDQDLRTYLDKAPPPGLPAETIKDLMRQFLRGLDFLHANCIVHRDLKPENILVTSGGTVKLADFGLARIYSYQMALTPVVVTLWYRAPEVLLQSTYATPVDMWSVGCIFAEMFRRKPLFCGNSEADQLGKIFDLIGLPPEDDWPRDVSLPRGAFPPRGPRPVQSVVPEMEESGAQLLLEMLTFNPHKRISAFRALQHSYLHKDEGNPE
Sequence of CDK4/cyclin D1 (P24385 whole entry partner): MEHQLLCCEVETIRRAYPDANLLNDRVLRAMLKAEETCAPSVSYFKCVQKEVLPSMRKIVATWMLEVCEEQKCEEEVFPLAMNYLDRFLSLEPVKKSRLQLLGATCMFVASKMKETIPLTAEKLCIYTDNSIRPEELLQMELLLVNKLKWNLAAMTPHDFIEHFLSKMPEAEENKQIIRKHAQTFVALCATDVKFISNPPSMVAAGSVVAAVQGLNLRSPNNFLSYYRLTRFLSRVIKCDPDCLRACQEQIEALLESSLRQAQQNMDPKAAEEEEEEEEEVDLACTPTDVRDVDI
Sequence of GSK3β (P49841 whole entry): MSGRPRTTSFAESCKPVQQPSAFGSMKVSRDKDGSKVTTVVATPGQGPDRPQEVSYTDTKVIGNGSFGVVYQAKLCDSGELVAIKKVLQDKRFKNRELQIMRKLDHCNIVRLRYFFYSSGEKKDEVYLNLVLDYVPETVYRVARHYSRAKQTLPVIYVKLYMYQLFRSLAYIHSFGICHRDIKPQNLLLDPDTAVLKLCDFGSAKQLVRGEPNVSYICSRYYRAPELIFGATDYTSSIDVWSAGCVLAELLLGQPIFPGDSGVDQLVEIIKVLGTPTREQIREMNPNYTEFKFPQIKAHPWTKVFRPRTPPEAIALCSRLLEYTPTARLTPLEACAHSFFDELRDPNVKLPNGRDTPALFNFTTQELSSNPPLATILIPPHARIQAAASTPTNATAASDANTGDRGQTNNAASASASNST
Sequence of CDK9/cyclin T1 (P50750 whole entry): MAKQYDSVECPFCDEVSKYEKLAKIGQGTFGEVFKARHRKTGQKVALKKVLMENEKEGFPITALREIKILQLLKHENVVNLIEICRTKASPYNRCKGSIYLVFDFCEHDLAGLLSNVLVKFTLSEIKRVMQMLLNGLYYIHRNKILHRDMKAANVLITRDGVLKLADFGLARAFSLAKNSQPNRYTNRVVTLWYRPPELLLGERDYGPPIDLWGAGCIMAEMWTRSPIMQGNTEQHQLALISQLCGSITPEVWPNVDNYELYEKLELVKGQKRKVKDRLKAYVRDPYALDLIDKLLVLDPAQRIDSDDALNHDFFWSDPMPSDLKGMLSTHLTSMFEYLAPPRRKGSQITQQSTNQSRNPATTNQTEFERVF
Sequence of CDK9/cyclin T1 (O60563 whole entry partner): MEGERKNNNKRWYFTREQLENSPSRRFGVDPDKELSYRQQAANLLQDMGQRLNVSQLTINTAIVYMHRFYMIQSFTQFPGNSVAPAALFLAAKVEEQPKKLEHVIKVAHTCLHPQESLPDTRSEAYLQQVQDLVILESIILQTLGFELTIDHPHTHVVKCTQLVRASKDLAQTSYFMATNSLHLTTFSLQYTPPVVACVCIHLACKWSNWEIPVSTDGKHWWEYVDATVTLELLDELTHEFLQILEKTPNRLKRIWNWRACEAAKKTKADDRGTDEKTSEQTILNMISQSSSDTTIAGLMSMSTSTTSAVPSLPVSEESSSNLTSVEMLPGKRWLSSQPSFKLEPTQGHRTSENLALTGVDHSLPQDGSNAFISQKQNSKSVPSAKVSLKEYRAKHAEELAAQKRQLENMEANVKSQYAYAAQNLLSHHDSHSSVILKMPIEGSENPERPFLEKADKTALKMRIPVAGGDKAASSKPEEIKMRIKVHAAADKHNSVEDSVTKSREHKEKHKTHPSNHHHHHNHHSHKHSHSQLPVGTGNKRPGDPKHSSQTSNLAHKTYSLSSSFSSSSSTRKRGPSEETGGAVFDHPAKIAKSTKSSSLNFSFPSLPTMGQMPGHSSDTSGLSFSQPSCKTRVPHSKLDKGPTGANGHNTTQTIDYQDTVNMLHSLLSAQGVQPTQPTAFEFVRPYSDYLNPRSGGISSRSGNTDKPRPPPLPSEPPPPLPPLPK
Sequence of CDK1/cyclin B (P06493 whole entry): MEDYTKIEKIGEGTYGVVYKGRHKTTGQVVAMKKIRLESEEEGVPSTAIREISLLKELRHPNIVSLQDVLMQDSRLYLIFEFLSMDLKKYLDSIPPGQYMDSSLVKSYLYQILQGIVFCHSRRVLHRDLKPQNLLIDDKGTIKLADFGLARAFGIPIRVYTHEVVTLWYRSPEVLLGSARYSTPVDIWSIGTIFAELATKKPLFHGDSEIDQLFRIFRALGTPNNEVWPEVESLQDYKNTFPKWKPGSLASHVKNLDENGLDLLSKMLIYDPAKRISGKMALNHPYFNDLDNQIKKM
Sequence of CDK1/cyclin B (P14635 whole entry partner): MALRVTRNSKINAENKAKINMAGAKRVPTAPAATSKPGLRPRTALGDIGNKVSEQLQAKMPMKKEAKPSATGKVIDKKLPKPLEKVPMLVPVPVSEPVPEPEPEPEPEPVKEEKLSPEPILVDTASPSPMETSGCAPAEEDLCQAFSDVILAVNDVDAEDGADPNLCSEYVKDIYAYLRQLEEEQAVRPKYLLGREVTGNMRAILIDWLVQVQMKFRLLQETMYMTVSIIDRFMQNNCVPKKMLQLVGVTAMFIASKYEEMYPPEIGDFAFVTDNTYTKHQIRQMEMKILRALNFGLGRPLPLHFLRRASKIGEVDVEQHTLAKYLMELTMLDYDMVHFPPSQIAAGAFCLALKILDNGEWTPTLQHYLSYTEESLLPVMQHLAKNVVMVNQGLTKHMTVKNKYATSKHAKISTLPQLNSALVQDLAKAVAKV
Sequence of CDK7/cyclin H (P50613 whole entry): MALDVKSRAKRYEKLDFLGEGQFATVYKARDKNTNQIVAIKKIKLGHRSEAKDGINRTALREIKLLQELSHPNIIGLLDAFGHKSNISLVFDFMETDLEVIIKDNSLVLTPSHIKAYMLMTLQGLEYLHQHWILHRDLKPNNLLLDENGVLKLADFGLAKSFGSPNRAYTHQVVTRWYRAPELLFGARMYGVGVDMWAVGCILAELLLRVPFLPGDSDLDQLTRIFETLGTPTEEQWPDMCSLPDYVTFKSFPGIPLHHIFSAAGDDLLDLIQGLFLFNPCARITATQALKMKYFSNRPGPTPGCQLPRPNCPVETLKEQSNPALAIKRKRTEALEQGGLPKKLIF
Sequence of CDK7/cyclin H (P51946 whole entry partner): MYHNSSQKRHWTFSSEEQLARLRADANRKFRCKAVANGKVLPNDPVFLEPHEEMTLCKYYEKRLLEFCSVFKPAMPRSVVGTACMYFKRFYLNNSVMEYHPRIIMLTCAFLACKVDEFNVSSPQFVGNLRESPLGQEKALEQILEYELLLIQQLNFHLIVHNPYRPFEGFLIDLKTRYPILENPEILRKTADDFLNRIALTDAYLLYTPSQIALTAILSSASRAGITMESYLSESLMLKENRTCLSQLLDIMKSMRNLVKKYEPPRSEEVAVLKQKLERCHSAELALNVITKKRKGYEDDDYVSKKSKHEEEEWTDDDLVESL

Row | SMILES | Ki (CDK2/cyclin E) [nM] | Ki (CDK4/cyclin D1) [nM] | IC50 (A549) [nM] | IC50 (HT29) [nM] | IC50 (Saos-2) [nM] | IC50 [1, 2] [nM] | melting point [°C] | Ki (Aurora-A) [nM] | Ki (CDK1/cyclin B) [nM] | Ki (CDK2/cyclin A) [nM] | Ki (CDK7/cyclin H) [nM] | Ki (CDK9/cyclin T1) [nM] | Ki (GSK3β) [nM] | IC50 [1, 3] [nM]
1 | Cc1nc(C)c(-c2ccnc(Nc3ccc[n+](C)c3)n2)s1 [Compound 2, 3-[4-(2,4-Dimethyl-thiazol-5-yl)-pyrimidin-2-ylamino]-1-methyl-pyridinium] | 1500 | 4100 | 11600 | 86000 | 48500 | 48700 ± 37200 | 297 to 300 | – | – | – | – | – | – | –
2 | Cc1nc(C)c(-c2ccnc(Nc3ccc(Cl)nc3)n2)s1 [Compound 3, (6-Chloro-pyridin-3-yl)-[4-(2,4-dimethyl-thiazol-5-yl)-pyrimidin-2-yl]-amine] | 350 | 660 | 9800 | 2800 | 4400 | 5700 ± 3700 | – | 860 | 4200 | 1700 | 7200 | 970 | 110 | < 10000
3 | CNc1nc(C)c(-c2ccnc(Nc3ccc(Cl)nc3)n2)s1 [Compound 9, (6-Chloro-pyridin-3-yl)-[4-(4-methyl-2-methylamino-thiazol-5-yl)-pyrimidin-2-yl]-amine] | 80 | 980 | 3700 | 4700 | 5200 | 4600 ± 800 | – | 1000 | – | 480 | – | 110 | – | < 10000
4 | COc1ccc(Nc2nccc(-c3sc(N(C)C)nc3C)n2)cn1 [Compound 10, [4-(2-Dimethylamino-4-methyl-thiazol-5-yl)-pyrimidin-2-yl]-(6-methoxy-pyridin-3-yl)-amine] | 120 | 70 | 2400 | 1700 | 1800 | 2000 ± 400 | – | – | 1200 | 330 | 2300 | 140 | 110 | –
5 | CCNc1nc(C)c(-c2ccnc(Nc3ccc(OC)nc3)n2)s1 [Compound 12, [4-(2-Ethylamino-4-methyl-thiazol-5-yl)-pyrimidin-2-yl]-(6-methoxy-pyridin-3-yl)-amine] | 50 | 80 | 1200 | 800 | 1500 | 1200 ± 400 | – | – | 100 | 30 | 130 | 90 | 60 | –
6 | Cc1nc(C)c(-c2ccnc(Nc3ccc(N4CCCC4)nc3)n2)s1 [Compound 14, [4-(2,4-Dimethyl-thiazol-5-yl)-pyrimidin-2-yl]-(6-pyrrolidin-1-yl-pyridin-3-yl)-amine] | – | 2600 | 300 | – | 320 | 300 | – | 120 | 2100 | 1400 | 730 | 100 | – | –
